Publication PMC8635029 (Frontiers in Pharmacology, 2021)
Where a name gives a salt, the structure may show the parent alone.

Legend:
ICR mice [1] = assay: Measurement of respiration (whole body plethysmography); type: in vivo
Description: A whole body plethysmography (DSI, US) was used to measure respiration in freely moving ICR mice (half male and half female) as described previously ([Manglik et al., 2016]; [Hill et al., 2018a]; [Hill et al., 2018b]) with some modifications. The respiratory frequency was recorded and then averaged for over 5-min period. The baseline values were recorded for 10 min before dosing. The mice were then removed from the chambers and given drugs, and respiration was then measured for 45 min.

mice = assay: Locomotor activity test (sedation)
SD rats [2] = assay: Hindpaw incision model (mechanical allodynia, von Frey); type: in vivo; conditions: 10 mg/kg
Description: The surgery was conducted as reported previously ([Brennan et al., 1996]; [Whiteside et al., 2004]; [Biddlestone et al., 2007]). Male SD rats were anesthetized with isoflurane inhalation (3–5%) and the plantar surface of the left hindpaw was sterilized using iodophor solution. A 1-cm longitudinal incision was made on the plantar surface with no. Eleven scalpel blade, starting at 0.5 cm from the heel and extending toward the toes. The deep fascia was cut to expose the flexor digitorum brevis muscle. The muscle was elevated with curved forceps and incised longitudinally with the tip of a scalpel blade without disturbing the origin and insertion. […] The responses to mechanical stimulation of the hindpaws were recorded at 2 h post-surgery and the mechanical pain thresholds were defined as pre-dose values. After dividing into different groups according to the pre-dose values, the animals were administered vehicle (normal saline) or test compounds and the mechanical pain thresholds were measured at 15 min and 24 h post-dose.
(§1) The rats were placed individually in Plexiglas chambers on a metallic mesh floor and allowed to acclimatize for 30–60 min ([Tsuda et al., 2011]). Mechanical allodynia was determined by probing the plantar surface of the hindpaw from below the mesh floor with a series of calibrated von Frey filaments (Stoelting) in log increments of force ([Lai et al., 2006]). […]

ICR mice [3] = assay: Acetic acid-induced writhing test; type: in vivo; conditions: 10 mg/kg s.c., 24 h post-dosing
Description: ICR mice (half male and half female) were used in this assay. […] A writhe was defined as a wave of contraction of the abdominal musculature followed by extension of the hind limbs ([Wang et al., 2018]). The percentage inhibition of writhes was calculated by the following formula: % antinociception = (Nv−Nt)/Nv × 100, where Nv is the number of writhes in vehicle group and Nt is the number of writhes in treatment groups.

C57BL/6J mice = assay: Hot-plate test; type: in vivo; conditions: 10 mg/kg
Description: The hot-plate test was performed according to previous reports ([DeWire et al., 2013]; [Hill et al., 2018a]; [Wang et al., 2018]). Female C57BL/6J mice were individually placed on a hot plate at 56°C and the latency to licking or jumping was then recorded. A cut-off time of 30 s was imposed in order to prevent tissue damage. Before drug administration, the latency of each mouse was measured and defined as the pre-drug value. The animals with a pre-drug value of greater than 20 s were excluded.

SD rats [4] = assay: Chronic constriction injury (CCI) model (mechanical allodynia, von Frey); type: in vivo; conditions: 10 mg/kg
Description: The CCI surgery was performed as described previously with slight modifications ([Bennett and Xie, 1988]). Male SD rats were used in the CCI model. After isoflurane inhalation anesthesia, the femoral skin of the left hindlimb was incised and the sciatic nerve was exposed by blunt dissection of the biceps femoris muscle with a pair of forceps ([Chen et al., 2018]). A 2 mm-long polyethylene cuff was successively implanted around the nerve and the incision was then closed with skin stapler ([Bailey and Ribeiro-da-Silva, 2006]; [Balasubramanyan et al., 2006]). Animals were returned to their cages after recovering from anesthesia. Seventeen days after the surgery, the responses to mechanical stimulation of the hindpaws were measured before the compounds were administered. The rats were then divided into different groups according to the pre-administration values. After the animals were given vehicle or test compounds, the mechanical pain thresholds were taken at multiple time points.
as §1

ICR mice [5] = assay: Compound 48/80-induced scratching test; type: in vivo; conditions: 0.02 mg/kg
Description: After acclimatization for 30–60 min in Plexiglas chambers, the male ICR mice were given vehicle or test compounds. Compound 48/80 (50 μg, 0.1 ml) was subcutaneously injected into the back of the neck at 15 min after drug administration ([Salaga et al., 2015]). The mice were immediately placed back into the chambers and the scratching behaviors were recorded for 30 min ([Kobayashi et al., 2003]; [Inan et al., 2009]; [Hachisuka et al., 2010]). One bout of scratching was defined as the mouse lifting its hindpaw towards the injection site to scratch until it either licked or bite the hindpaw or placed it back down on the floor ([Nojima and Carstens, 2003]). The percentage inhibition of scratching was calculated by the following formula: % antipruritis = (Bv−Bt)/Bv × 100, where Bv is the bouts of scratching in vehicle group and Bt is the bouts of scratching in treatment groups.

In the case of `CC(C)C[C@@H](NC(=O)[C@@H](Cc1ccccc1)NC(=O)[C@H](N)Cc1ccccc1)C(=O)N[C@H](CCCCN)C(=O)N1CCC(N)(C(=O)O)CC1` [CR845], the “effect on respiratory rate” value (ICR mice [1]; 2 mg/kg) is reported as “significant decrease”, the “time post-administration at which respiratory rate was significantly decreased” value (ICR mice [1]; 2 mg/kg) is reported as 25 min and the “time post-drug at which effects on respiratory rate reached a peak” value (ICR mice [1]; 2 mg/kg) is reported as 45 min. The “effect on locomotor activity / total distance traveled” value (mice; 0.4 mg/kg, 15 min post-dosing) was “obvious decrease”.
With `CN1CC[C@]23c4c5ccc(O)c4O[C@H]2[C@@H](O)C=C[C@H]3[C@H]1C5` [morphine, morphine sulfate] the “effect on respiratory rate” value (ICR mice [1]; 10 mg/kg) was “significantly reduced”, the “effect on hindpaw incision-induced mechanical allodynia” value (SD rats [2]; 15 min after dosing) was “completely inhibited” and the “effect on pain behaviors” value (SD rats [2]; 24 h post-dosing) was “no any effect”. The “efficacy in writhing test” value (ICR mice [3]) was “vanished”, the “central antinociceptive effect in hot-plate test” value (C57BL/6J mice) was “almost complete efficacy” and the “effect on CCI-induced mechanical allodynia” value (SD rats [4]; 15 min after dosing) was “completely inhibited”. The “effect on pain behaviors” value (SD rats [4]; 24 h post-dosing) was “no any effect” and the “effect on distance traveled” value (mice; 10 mg/kg) was “reduced remarkedly”.
`CN(C(=O)/C=C/c1ccoc1)[C@@H]1CC[C@@]2(O)[C@H]3Cc4ccc(O)c5c4[C@@]2(CCN3CC2CC2)[C@H]1O5` [nalfurafine, nalfurafine hydrochloride] was tested, and the “inhibitory rate on scratching responses” value (ICR mice [5]) was 94.30%.
